Earlier results on one compound are cited in patent US20070254070A1, “Encapsulating Plant Extracts Adsorbed and/or Absorbed in Precipitated Silica” (AXISS FRANCE S.A.S., priority 2004, published 2007).

In this series the test system is bacteria.

Take `Cc1ccc(C(C)C)cc1O` [carvacrol]: the action on bacteria result is listed as “bactericidal”.
